The values that follow come from US6670401B2, “Polysubstituted indan-1-ol compounds, and methods for their preparation and use” (Aventis Pharma Deutschland GmbH, priority 2001, dated 2003).

One series concerns female NMRI mice. The series is described as follows: Anorectic action: cumulative evaporated milk consumption after 24 h feed removal. It is filed as in vivo, mouse. Particulars: 30 mg/kg i.p. As for the experimental part: The activity of the compounds was assayed as follows:
The anorectic action was tested on female NMRI mice. After removal of feed for 24 hours, the preparation to be tested was administered intraperitoneally (i.p.) or by gavage (po). The animals were housed singly and, with free access to drinking water, they were offered evaporated milk 30 minutes after administration of the preparation. The consumption of evaporated milk was determined and the general behavior of the animals was monitored every half an hour for 7 hours. The measured milk consumption was compared to that of vehicle-treated control animals.

What is called melting point is the temperature, or range, at which the solid turns liquid.

`CC1(O)c2ccc(Cl)cc2CC1(F)S(C)(=O)=O` (stereo not drawn) [Example 1, 5-Chloro-2-fluoro-2-methanesulfonyl-1-methylindan-1-ol] yielded a melting point of 148 °C. In addition, the “Reduction in cumulative milk consumption as % of the control” value in the series with female NMRI mice (compared with vehicle-treated control animals) turned out to be 25%. Besides, in the series on female NMRI mice (milk offered 30 min after administration, monitored for 7 hours, N=4), the “cumulative milk consumption by treated animals” value is recorded as 4/2.88 ml.
